Source: patent US12716889B2, “Microfluidic-based device for in vivo wound infection model and uses thereof” (The Hong Kong Polytechnic University, priority 2021, dated 2026)

System: P. aeruginosa (PAO1) biofilm
Experiment: Viable cell counts (CFU) from biofilm on infected tail wound of Medaka fish in the MicroFish device
Type: in vivo, Pseudomonas aeruginosa
Conditions: ciprofloxacin monotherapy at 0, 0.05, 1, 5, 10 μg ml^−1 added to fish-microbe co-cultures; FIG. 5E
Protocol: After harvesting the tails from euthanized animals after bacterial infection, the tissues were resuspended in 100 μl sterilized 0.9% (w/v) NaCl saline and ground manually by pellet pestle in 1.5-ml-microcentrifuge tubes (JET BIOFIL, China) until homogenization. The homogenized samples were diluted serially in 0.9% NaCl and then spread on centrimide agar (selective only for Pseudomonad growth) (Sigma-Aldrich, Germany). After incubation at 37° C. for 16 hrs, the colonies grown on the plates were enumerated. The CFU ml^−1 was tabulated by colony number×dilution factor[…]. Experiments were performed in triplicates, and the results are shown as mean±S.D.

O=C(O)c1cn(C2CC2)c2cc(N3CCNCC3)c(F)cc2c1=O [ciprofloxacin]
biofilm viability (viable cell counts, CFU): lower biofilm viability
